Columns and labels:
CT26 cells [1] = assay: Apoptosis and necrosis of CT26 cells (Annexin V/PI flow cytometry); format: cell-based; conditions: CT26, visible light
Description: The degrees of apoptosis and necrosis of cancer cells were quantitatively analyzed to accurately evaluate the anticancer effect of the self-assembled nanoparticles (LT-NPs). First, CT26 cells treated with doxorubicin (DOX), verteporfin (VPF), a mixture of doxorubicin and verteporfin (VPF+DOX) or the self-assembled nanoparticles (LT-NPs) and a laser were prepared as above and treated with 5 μg of Annexin V-FITC and 10 μg of PI solution for 10 min. Then, cells were cultured with a cell fixative for 10 min and further cultured with DAPI for 20 min. The degrees of apoptosis and necrosis were quantitatively analyzed using a flow cytometer (BD FACSVerse, BD bioscience, USA).

CT26 cells [2] = assay: Immunogenic cell death: extracellular ATP release; format: cell-based; conditions: CT26, 5 μM, 24 h, +L/−L
Description: (§1) First, CT26 cells were plated in 35 mm cell culture dishes at a density of 1×10^5 cells/dish and doxorubicin (DOX) (5 μM), verteporfin (VPF) (5 μM) or the self-assembled nanoparticles (LT-NPs) (5 μM) were added to each dish. After 24-h culture, one half was exposed by irradiation with visible light using a 671 nm laser at 40 mW for 250 sec (+L) and the other half was not irradiated with visible light for comparison (−L). The immunogenic cell death of the self-assembled nanoparticles (LT-NPs) was evaluated using the cells and the cell culture media.
ATP was analyzed using a commercially available ATP assay kit (Beyotime Biotechnology) according to the manufacturer's protocol.

[3] = Morphological analysis by transmission electron microscopy in saline; format: physicochemical; conditions: 1 mg in 1 mL physiological saline
Description: The self-assembled nanoparticles (LT-NPs) prepared in Example 1, doxorubicin (DOX), and verteporfin (VPF) were used as samples. 1 mg of each sample was mixed with physiological saline (1 mL). […] The self-assembled nanoparticles (LT-NPs) were mixed with cathepsin B (Cat-B) protease (50 μg/mL). The mixture was allowed to react for 24 h.

CT26 cells [4] = assay: Immunogenic cell death: calreticulin expression; format: cell-based; conditions: CT26, 5 μM, 24 h, +L/−L
Description: as §1
Cells were stained with APC-conjugated CRT antibody for 12 h and observed with a confocal fluorescence microscope.

CT26 cells [5] = assay: Immunogenic cell death: extracellular HSP70 and HMGB1 (Western blotting); format: cell-based; conditions: CT26, 5 μM, 24 h, +L/−L
Description: as §1
Before staining the cells with APC-conjugated CRT antibody, culture media were separated from the cells and the extracellular expression levels of HMGB1 and HSP70 were analyzed by Western blotting.
Each cell culture medium was treated with RIPA buffer (Cell Signaling Technology) at 4° C. for 30 min and the protein amount of the lysate was analyzed using a Pierce BCA protein assay kit (Thermo Fisher Scientific) according to the manufacturer's protocol. After SDS-PAGE, proteins were transferred to a PVDF membrane (Bio-Rad), which was then treated with Tris-buffered saline (TBS-T) containing 5% skim milk and 0.1% Tween-20. The membrane was incubated with primary antibodies at 4° C. overnight. HSP70 and HMGB1 antibodies were used as the primary antibodies. The membrane was washed with TBS-T and incubated with a secondary antibody at room temperature for 1 h. The membrane was washed with TBS-T, treated with EZ-Western Lumi Pico or Femto reagent (DoGen), and analyzed using Fusion-Solo software (Vilber) according to the manufacturer's protocol to determine band intensities.

morphology in physiological saline (TEM) [3]	Compound	degree of apoptosis (and necrosis) (CT26 cells [1])	ATP release (CT26 cells [2])	calreticulin expression (CT26 cells [4])	HMGB-1 release (CT26 cells [5])	HSP70 release (CT26 cells [5])	proportions of early apoptosis, late apoptosis and necrosis (CT26 cells [1])
aggregated	COc1cccc2c1C(=O)c1c(O)c3c(c(O)c1C2=O)C[C@@](O)(C(=O)CO)C[C@@H]3O[C@H]1C[C@H](N)[C@H](O)[C@H](C)O1 [doxorubicin]	very little apoptosis	lowest	lowest	lowest	lowest	
aggregated	verteporfin	considerable apoptosis and necrosis	relatively increased	relatively increased	relatively increased	relatively increased	increase the proportion of late apoptosis
